Data published in patent US9334271B2, “Purine derivatives and their use in the treatment of disease” (Novarits AG, priority 2012, dated 2016).
Like-named read-outs stand apart in the source and are kept apart here.

Tests used:
recombinant human mTOR = recombinant human mTOR (Homo sapiens (Human), UniProt P42345); test: Test 1: mTOR ATP-binding assay based on TR-FRET; conditions: GST-tagged truncated human mTOR, tracer-314, TR-FRET
Experimental: Test 1: mTOR ATP-Binding Assay Based on TR-FRET for Recombinant Human mTOR
2. The final volume of the assay is 10 μL and the order of addition is as follows:
50 nL of compounds dilution;
Incubated for 60 minutes at room temperature.
TR-FRET measured in Biotek Synergy2 reader at: • Excitation 340 nm/emission 665 nm • Excitation 340 nm/emission 620 nm
The following final concentrations are used:
1 nM Europium anti-GST antibody;
The following controls are used:
3. IC50 determinations may be performed as follows:
The Emission ratio is converted to percentage of inhibition for each compound concentration. IC50 values are calculated by fitting a sigmoidal dose-response curve to a plot of assay readout over compound concentration. All fits and analysis are performed with the program XLfit4 (ID Business Solutions, Guildford, UK).

[1] = test system: cellular mTOR kinase activity (phosphorylation of Thr 389 of S6K1) in TSC1-/- MEFs; test: Test 2: Cellular mTOR assay (P-P70S6K T389 Surefire); type: cell-based; conditions: Mus musculus
Experimental: Test 2: Cellular mTOR Assay
30 μl are added per well to a 384 well-plate using a Multidrop instrument (Thermo scientific), resulting in 4000 cells/well. The plates are incubated at 37° C./5% CO2 for 20 hours (to allow for settling and adherance to the surface).
Eight 3-fold serial dilutions of test-compounds (beginning at 1.8 mM) are prepared in 90% DMSO and compiled on 384 well master plates (Greiner). A pan-pPI3K/mTOR inhibitor (0.8 mM of 8-(6-methoxy-pyridin-3-yl)-3-methyl-1-(4-piperazin-1-yl-3-trifluoromethyl-phenyl)-1,3-dihydro-imidazo[4,5-c]quinolin-2-one in 90% DMSO) is added to the wells for the low control. 90% DMSO is added to the wells for the high controls. Compounds are provided as 250 nl shots (Hummingbird) in 384 well-polypropylene microplates (compound plates). 50 μl of growth medium is added to the compound plates (dilution 1:200) with the Multidrop. After shaking (1 min at 2000 rpm), 10 μl of the first dilution is then transferred to the cell plate with a Matrix Plate Mate 2×3 pipettor (final dilution 1:4). After 1 hour of treatment, medium is removed from the plate and 20 μl of Surefire lysis buffer is added per well with the Multidrop.
Cell lysates are frozen for 15 minutes, thawed with shaking and transferred to the experimental 384 well-Proxiplate (5 μl/well) for the P-P70S6K (T389) Surefire assay (Perkin Elmer #TGR70S50). The first mix is composed of the reaction buffer (containing the specific antibody), the activation buffer and the acceptor beads (40 vol, 10 vol and 1 vol respectively). 5 μl per well is added to the lysates with a Zephyr® SPE Workstation (Caliper Life Sciences) and incubated for 2 hours with shaking at room temperature. After this incubation time, the second mix of dilution buffer and donor beads (20 vol and 1 vol respectively) is added to the plate with the same instrument (2 μl/well). After 2 hours, the plate can be read with an EnVision® Multilabel Reader (Perkin Elmer). Since the beads are light sensitive, their transfer and incubation is executed in a dark room (greenlight).
The raw data is used to generate dose response curves for test compounds and IC50 values calculated therefrom.

H4 mCherry-GFP-LC3 cells = test: Test 3: Autophagy assay (mCherry-GFP-LC3 reporter, high-content imaging); type: cell-based, human; conditions: 16-18 h treatment, mCherry-positive LC3 puncta/cell
From the text: Autophagy is a catabolic pathway that degrades bulk cytosol in lysosomal compartments enabling amino acids and fatty acids to be recycled. One of the key regulators of autophagy is the mammalian target of rapamycin (mTOR), a conserved serine/threonine kinase which suppresses the initiation of the autophagic process when nutrients, growth factors and energy are available. To quantify autophagy induction by mTOR inhibitors, we use a mCherry-GFP-LC3 reporter which is amenable to retroviral delivery into mammalian cells, stable expression and analysis by fluorescence microscopy.
The amino acid sequence of the mCherry-GFP-LC3 construct is shown below (SEQ ID NO: 1). The mCherry sequence is underlined, GFP sequence is in bold and LC3A sequence is boxed.
Described hereinafter is an imaging protocol and image recognition algorithm to visualize and measure changes in the autophagic pathway.
Quantification of Autophagy Using High-Content Imaging and Analysis
• 1. Day 0: Cell plating. Subconfluent H4 mCherry-GFP-LC3 cells are harvested by trypsinization, resuspended in growth medium, and counted (H4 cells: Human neuroglioma cell line (ATCC)). A cell suspension of 66′000 cells/mL is prepared and 30 μL are added into the wells of a 384-well plate using an electronic multichannel pipette. […] The cell plates are briefly spun down and placed at 37° C. and 5% CO2. • 2. Day 1: Compound treatment. Compound dose responses are prepared in DMSO. The dose responses are then diluted 1:50 in medium. 10 ul of the diluted compound is added to 30 ul of cells, yielding a final 1:200 dilution of the original compound and final of 0.5% DMSO. Compound-treatments are performed in triplicates. The 384-well plates are placed at 37° C. and 5% CO2. Compound treatment is performed for 16-18 h (see Note 1). • 3. Day 2: Cell fixation. Cells are fixed by adding 10 μL/well 5× concentrated Mirsky's fixative supplemented with 25 μg/mL Hoechst33342. […] The 384-well plate is briefly spun down and incubated for 1 h at room temperature. Cells are then washed using a 384-well plate washer using a protocol which aspirates the volume down to 10 μL/well before dispensing 100 μL/well 1×TBS. Aspiration and dispensing steps are repeated 4 times and a final volume of 100 μL/well is left. The plate is sealed using an adhesive PCR foil. • 4. Imaging. The bottom of the plate is cleaned with 70% ethanol and then imaged using the InCell 1000 automated epifluorescence microscope. 20× magnification is used and 4 different areas (fields) are imaged per well, this typically captures a total of around 400 cells per well. Hoechst33342 images are acquired using an excitation of 360 nm (D360_40x filter), an emission of 460 nm (HQ460_40M filter) and an exposure time of 150 ms. GFP images are acquired using an excitation of 475 nm (S475_20x filter), an emission of 535 nm (HQ535_50M filter) and an exposure time of 1 s. mCherry images are acquired using an excitation of 535 nm (HQ535_50x filter), an emission of 620 nm (HQ620_60M filter) and an exposure time of 1 s. A quadruple band pass mirror is used for all images. • 5. Image analysis. The InCell Analysis software is used to analyze the images using the Multi Target Analysis algorithm. First, nuclei are detected in the Hoechst33342 image using top-hat segmentation and a minimal nuclear area of 50 μm^2. Cells are defined using a collar of 10 μm around the nuclei. Second, puncta (organelles) are identified in the mCherry image inside the cells using multi-top-hat segmentation. Third, the mask of the mCherry puncta is transferred onto the GFP image. Fourth, the GFP fluorescence intensity inside the mCherry puncta mask is measured (reference intensity). • 6. The ‘organelles’ parameter reflects mCherry-positive puncta of the mCherry-GFP-LC3 reporter and is used to calculate ‘LC3 puncta/cell’. […]

[2] = 1 h, read-out: Test 2: T389 cellular assay IC50 (nM)
[3] = TSC1-/- MEFs, 1 hour treatment, P-P70S6K (T389), read-out: Test 2: T389 cellular assay IC50

recombinant human mTOR, sequence (P42345 1360-2549): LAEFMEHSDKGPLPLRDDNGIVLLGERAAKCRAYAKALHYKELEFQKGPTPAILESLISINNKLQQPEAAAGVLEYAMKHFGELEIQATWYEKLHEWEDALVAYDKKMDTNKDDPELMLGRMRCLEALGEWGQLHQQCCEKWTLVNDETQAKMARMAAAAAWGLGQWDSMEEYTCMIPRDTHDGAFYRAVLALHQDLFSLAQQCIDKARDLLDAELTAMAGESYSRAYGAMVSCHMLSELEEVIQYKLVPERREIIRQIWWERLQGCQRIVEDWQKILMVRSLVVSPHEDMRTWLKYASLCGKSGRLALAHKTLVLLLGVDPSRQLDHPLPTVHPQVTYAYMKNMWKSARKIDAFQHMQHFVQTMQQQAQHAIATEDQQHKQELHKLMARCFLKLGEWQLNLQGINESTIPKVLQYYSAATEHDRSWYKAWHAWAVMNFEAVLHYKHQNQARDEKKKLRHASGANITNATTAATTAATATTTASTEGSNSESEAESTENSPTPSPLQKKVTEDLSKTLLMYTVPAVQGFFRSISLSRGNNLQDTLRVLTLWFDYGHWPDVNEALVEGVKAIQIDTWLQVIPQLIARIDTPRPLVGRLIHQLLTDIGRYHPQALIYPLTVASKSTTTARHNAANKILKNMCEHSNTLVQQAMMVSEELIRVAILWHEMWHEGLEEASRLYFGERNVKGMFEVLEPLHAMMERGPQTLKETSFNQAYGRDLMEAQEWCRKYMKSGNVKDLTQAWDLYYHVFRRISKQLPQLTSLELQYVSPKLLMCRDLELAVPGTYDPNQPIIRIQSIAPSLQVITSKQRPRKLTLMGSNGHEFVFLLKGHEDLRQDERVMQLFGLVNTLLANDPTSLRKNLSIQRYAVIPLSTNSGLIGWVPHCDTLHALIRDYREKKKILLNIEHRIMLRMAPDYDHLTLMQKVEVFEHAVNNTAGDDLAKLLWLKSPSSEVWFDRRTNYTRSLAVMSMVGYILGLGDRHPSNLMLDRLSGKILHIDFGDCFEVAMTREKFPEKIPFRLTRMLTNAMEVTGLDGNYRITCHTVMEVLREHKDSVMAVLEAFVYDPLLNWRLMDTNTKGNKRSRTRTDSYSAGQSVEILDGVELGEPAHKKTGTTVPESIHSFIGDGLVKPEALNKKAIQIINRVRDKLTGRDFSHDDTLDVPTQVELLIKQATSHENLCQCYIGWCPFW

Compound	IC50 (recombinant human mTOR)	IC50 [1, 2]	EC50 (H4 mCherry-GFP-LC3 cells; Homo sapiens)	also measured
c1ccc(-c2nc3c(N4CCOCC4)nc(N4CCOCC4)nc3[nH]2)nc1 [Example 9, 2,6-Di-morpholin-4-yl-8-pyridin-2-yl-9H-purine]	860 nM			
CCC[C@@H]1COCCN1c1nc(N2CCOC[C@H]2C)c2nc(-c3cccc4[nH]ccc34)[nH]c2n1 [Example 12, 8-(1H-Indol-4-yl)-6-((R)-3-methyl-morpholin-4-yl)-2-((R)-3-propyl-morpholin-4-yl)-9H-purine]	194 nM	534 nM	674 nM	
C[C@@H]1COCCN1c1nc(N2CCOC[C@H]2C)c2nc(-c3ccc(-c4ncc[nH]4)cc3)[nH]c2n1 [Example 4, 8-[4-(1H-Imidazol-2-yl)-phenyl]-2,6-bis-((R)-3-methyl-morpholin-4-yl)-9H-purine]	2120 nM		2160 nM	IC50 [1, 3]: 1550 nM
C[C@@H]1COCCN1c1nc(N2C3CCC2CC(O)C3)nc2[nH]c(-c3cccc4[nH]ccc34)nc12 (stereo partly drawn) [Example 13, 8-[8-(1H-Indol-4-yl)-6-((R)-3-methyl-morpholin-4-yl)-9H-purin-2-yl]-8-aza-bicyclo[3.2.1]octan-3-ol]			935 nM	
C[C@@H]1COCCN1c1nc(N2CCOC[C@@H]2C)nc2[nH]c(-c3cc[nH]n3)nc12 [Example 2, 2-((S)-3-Methyl-morpholin-4-yl)-6-((R)-3-methyl-morpholin-4-yl)-8-(1H-pyrazol-3-yl)-9H-purine]	104 nM		1050 nM	IC50 [1, 3]: 131 nM
COc1cc(-c2nc3c(N4CCOC[C@H]4C)nc(N4CCOC[C@@H]4C)nc3[nH]2)c2cc[nH]c2c1 [Example 31, 8-(6-Methoxy-1H-indol-4-yl)-2-((S)-3-methyl-morpholin-4-yl)-6-((R)-3-methyl-morpholin-4-yl)-9H-purine]	28 nM	71 nM	145 nM	
C[C@@H]1CN(c2nc(N3CCOC[C@H]3C)c3nc(-c4cccc5[nH]ccc45)[nH]c3n2)C[C@H](C)O1 [Example 23, 2-((2S,6R)-2,6-Dimethyl-morpholin-4-yl)-8-(1H-indol-4-yl)-6-((R)-3-methyl-morpholin-4-yl)-9H-purine]	78 nM	104 nM		Test 3: Autophagy EC50 (nM) (H4 mCherry-GFP-LC3 cells): n.m.
CC(C)[C@@H]1COCCN1c1nc(N2CCOC[C@H]2C)c2nc(-c3cccc4[nH]ccc34)[nH]c2n1 [Example 21, 8-(1H-Indol-4-yl)-2-((R)-3-isopropyl-morpholin-4-yl)-6-((R)-3-methyl-morpholin-4-yl)-9H-purine]	122 nM	179 nM		
C[C@@H]1COCCN1c1nc(N2CCC23CCOCC3)nc2[nH]c(-c3cccc4[nH]ccc34)nc12 [Example 24, 8-(1H-Indol-4-yl)-6-((R)-3-methyl-morpholin-4-yl)-2-(7-oxa-1-aza-spiro[3.5]non-1-yl)-9H-purine]			302 nM	
C[C@@H]1COCCN1c1nc(N2CCOC[C@H]2C)c2nc(-c3ccccn3)[nH]c2n1 [Example 1, 2,6-Bis-((R)-3-methyl-morpholin-4-yl)-8-pyridin-2-yl-9H-purine]	139 nM		351 nM	IC50 [1, 3]: 1010 nM
C[C@@H]1COCCN1c1nc(N2CC3(CCCOC3)C2)nc2[nH]c(-c3cccc4[nH]ccc34)nc12 [Example 17, 8-(1H-Indol-4-yl)-6-((R)-3-methyl-morpholin-4-yl)-2-(6-oxa-2-aza-spiro[3.5]non-2-yl)-9H-purine]			663 nM	
C[C@@H]1COCCN1c1nc(N2C3CCC2CC(O)C3)nc2[nH]c(-c3cccc4[nH]ccc34)nc12 (stereo partly drawn) [Example 14, 8-[8-(1H-Indol-4-yl)-6-((R)-3-methyl-morpholin-4-yl)-9H-purin-2-yl]-8-aza-bicyclo[3.2.1]octan-3-ol]				EC50 (H4 mCherry-GFP-LC3 cells): 855 nM
C[C@@H]1COCCN1c1nc(N2CCO[C@H](CO)C2)nc2[nH]c(-c3cccc4[nH]ccc34)nc12 [Example 25, {(S)-4-[8-(1H-Indol-4-yl)-6-((R)-3-methyl-morpholin-4-yl)-9H-purin-2-yl]-morpholin-2-yl}-methanol]	380 nM	1930 nM		
C[C@@H]1COCCN1c1nc(N2CC3COCC3C2)nc2[nH]c(-c3cccc4[nH]ccc34)nc12 (stereo partly drawn) [Example 19, 8-(1H-Indol-4-yl)-6-((R)-3-methyl-morpholin-4-yl)-2-(tetrahydro-furo[3,4-c]pyrrol-5-yl)-9H-purine]		471 nM	727 nM	
C[C@@H]1COCCN1c1nc(N2CCOC[C@@H]2C)nc2[nH]c(-c3cc(F)cc4[nH]ccc34)nc12 [Example 5, 8-(6-Fluoro-1H-indol-4-yl)-2-((S)-3-methyl-morpholin-4-yl)-6-((R)-3-methyl-morpholin-4-yl)-9H-purine]	21 nM			IC50 [1, 3]: 122 nM
C[C@@H]1COCCN1c1nc(N2CCC3COCC3C2)nc2[nH]c(-c3cccc4[nH]ccc34)nc12 (stereo partly drawn) [Example 20, 2-(Hexahydro-furo[3,4-c]pyridin-5-yl)-8-(1H-indol-4-yl)-6-((R)-3-methyl-morpholin-4-yl)-9H-purine]				Test 3: Autophagy EC50 (nM) (H4 mCherry-GFP-LC3 cells): n.m.
C[C@@H]1COCCN1c1nc(N2CCO[C@@H](CO)C2)nc2[nH]c(-c3cccc4[nH]ccc34)nc12 [Example 26, {(R)-4-[8-(1H-Indol-4-yl)-6-((R)-3-methyl-morpholin-4-yl)-9H-purin-2-yl]-morpholin-2-yl}-methanol]	67 nM	318 nM		
